For orientation: IC50 means the concentration that gives 50% inhibition.

In test [1] the target is NAMPT (Homo sapiens (Human), UniProt P43490). In words: Biochemical Inhibition Assay (NAMPT enzymatic reaction, NMN by mass spectrometry). The conditions noted are these: recombinant His-tagged NAMPT 33 nM, 1 μM NAM, 30 minutes; read-out: Biochem IC50. How it is done: Biochemical Inhibition Assay NAMPT Protein Purification Recombinant His-tagged NAMPT was produced in E. coli cells, purified over a Ni column, and further purified over a size-exclusion column by XTAL Biostructures. The NAMPT Enzymatic Reaction The NAMPT enzymatic reactions were carried out in Buffer A (50 mM Hepes pH 7.5, 50 mM NaCl, 5 mM MgCl2, and 1 mM THP) in 96-well V-bottom plates. The compound titrations were performed in a separate dilution plate by serially diluting the compounds in DMSO to make a 100× stock. […] Background and signal strength was determined by addition (or non-addition) of a serial dilution of NMN to a pre-quenched enzyme and cofactor mix. Quantification of NMN A mass spectrometry-based assay was used to measure the NAMPT reaction product (NMN) and the internal control (L-Cystathionine). NMN and L-Cystathionine were detected using the services of Biocius Lifesciences with the RapidFire system. In short, the NMN and L-Cystathionine are bound to a graphitic carbon cartridge in 0.1% formic acid, eluted in 30% acetonitrile buffer, and injected into a Sciex 4000 mass spectrometer. The components of the sample were ionized with electrospray ionization and the positive ions were detected. […] The fragments are quantified and the analyzed by the following method. % Inhibitions are Determined Using this Method. First the NMN signal is normalized to the L-Cystathionine signal by dividing the NMN signal by the L-Cystathionine signal for each well. The signal from the background wells are averaged and subtracted from the test plates. […] IC50s are Determined Using Excel and this Formula.

Test [2] relates to A2780 cells. In words: In-Vitro Cell Proliferation Assay (SRB). Format: cell-based. Conditions: Homo sapiens, A2780, 72 h. How it is done:
In-Vitro Cell Proliferation Assay […] After overnight incubation at 37° C. and 5% CO2, the compound titrations were performed in a separate dilution plate by serially diluting the compounds in DMSO to make a 1000× stock. The compounds were then further diluted to 10× final concentration in culture media, whereupon 20 μL of each dilution was added to the plated cells with controls (e.g. DMSO and blank) to make a final volume of 200 μL. The final DMSO concentration in each well was 0.1%. The plates were then incubated for 72 hours at 37° C. in a 5% CO2 incubator. The number of viable cells was then assessed using sulforhodamine B (SRB) assay. Cells were fixed at 4° C. for 1 hour with the addition of 50 μL 30% trichloroacetic acid (TCA) to make a final concentration of 6% TCA. The plates were washed four times with H2O and allowed to dry for at least 1 hour, whereupon 100 μL of a […] SRB in 1% acetic acid solution was added to each well and incubated at room temperature for at least 30 minutes. The plates were then washed three times with 1% acetic acid, dried, and treated with 100 μL of 10 mM Tris-Base solution. The plates were then read in a microplate reader at an absorbance of 570 nm. Background was generated on a separate plate with media only. Method for Determining % Inhibition First, the signals from the background plate are averaged, then the background was subtracted from the test plates. […] Formula for Determining IC50 Values: […] Specificity of Cytotoxicity. Inhibition of NAMPT could be reversed by the addition of NAM or NMN. The specificity of the compounds were determined via cell viability assay in the presence of the compound and either NAM or NMN. Percent inhibitions were determined using the method given above.

Sequence of NAMPT (P43490 whole entry): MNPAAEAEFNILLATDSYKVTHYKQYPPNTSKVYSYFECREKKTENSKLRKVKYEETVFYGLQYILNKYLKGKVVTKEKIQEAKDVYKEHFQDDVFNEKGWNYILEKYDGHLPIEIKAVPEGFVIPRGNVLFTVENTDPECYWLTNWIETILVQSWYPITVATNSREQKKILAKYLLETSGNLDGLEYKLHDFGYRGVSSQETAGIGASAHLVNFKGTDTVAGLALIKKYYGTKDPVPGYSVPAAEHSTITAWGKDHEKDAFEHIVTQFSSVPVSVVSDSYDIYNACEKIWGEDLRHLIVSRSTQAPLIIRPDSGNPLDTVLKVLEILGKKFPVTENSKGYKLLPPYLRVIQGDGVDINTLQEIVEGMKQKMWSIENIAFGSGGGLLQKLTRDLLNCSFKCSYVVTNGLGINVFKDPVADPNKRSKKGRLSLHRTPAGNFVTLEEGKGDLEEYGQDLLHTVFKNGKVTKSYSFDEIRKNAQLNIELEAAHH

For `COc1ccccc1S(=O)(=O)c1ccc(CNC(=NC#N)Nc2ccncc2)cc1` [2-cyano-1-({4-[(2-methoxybenzene)sulfonyl]phenyl}methyl)-3-(pyridin-4-yl)guanidine], the 50% inhibitory concentration (IC50) in test [1] amounted to 7.2 nM; in test [2], 3.9 nM.

As for `Cc1ccccc1S(=O)(=O)c1ccc(CNC(=NC#N)Nc2ccncc2)cc1` [2-cyano-1-({4-[(2-methylbenzene)sulfonyl]phenyl}methyl)-3-(pyridin-4-yl)guanidine], the IC50 in test [1] amounted to 7.9 nM; in test [2], 5.6 nM.

For `N#CN=C(NCc1ccc(S(=O)(=O)c2ccc(Cl)c(Cl)c2)cc1)Nc1ccncc1` [2-cyano-1-({4-[(3,4-dichlorobenzene)sulfonyl]phenyl}methyl)-3-(pyridin-4-yl)guanidine], the IC50 came out at 1.7 nM in test [1] and 1 nM in test [2].

Consider `N#CN=C(NCc1ccc(S(=O)(=O)c2ccc(F)c(F)c2)cc1)Nc1ccncc1` [2-cyano-1-({4-[(3,4-difluorobenzene)sulfonyl]phenyl}methyl)-3-(pyridin-4-yl)guanidine], for which the concentration for half-maximal inhibition (IC50) was determined as 0.8 nM in test [1] and 2.5 nM in test [2].

Take `COc1ccc(S(=O)(=O)c2ccc(CNC(=NC#N)Nc3ccncc3)cc2)cc1OC` [2-cyano-1-({4-[(3,4-dimethoxybenzene)sulfonyl]phenyl}methyl)-3-(pyridin-4-yl)guanidine]: the IC50 was 4 nM in test [1] and 3.4 nM in test [2].

In the case of `Cc1ccc(S(=O)(=O)c2ccc(CNC(=NC#N)Nc3ccncc3)cc2)cc1C` [2-cyano-1-({4-[(3,4-dimethylbenzene)sulfonyl]phenyl}methyl)-3-(pyridin-4-yl)guanidine], the IC50 worked out at 2.2 nM in test [1] and 1.2 nM in test [2].

As for `N#CN=C(NCc1ccc(S(=O)(=O)c2cc(Cl)cc(Cl)c2)cc1)Nc1ccncc1` [2-cyano-1-({4-[(3,5-dichlorobenzene)sulfonyl]phenyl}methyl)-3-(pyridin-4-yl)guanidine], the IC50 in test [1] worked out at 11.2 nM; in test [2], 1.6 nM.

`N#CN=C(NCc1ccc(S(=O)(=O)c2cc(F)cc(F)c2)cc1)Nc1ccncc1` [2-cyano-1-({4-[(3,5-difluorobenzene)sulfonyl]phenyl}methyl)-3-(pyridin-4-yl)guanidine]: the half-maximal inhibitory concentration (IC50) in test [1] stood at 1 nM; in test [2], 2 nM.

Turning to `Cc1cc(C)cc(S(=O)(=O)c2ccc(CNC(=NC#N)Nc3ccncc3)cc2)c1` [2-cyano-1-({4-[(3,5-dimethylbenzene)sulfonyl]phenyl}methyl)-3-(pyridin-4-yl)guanidine], the 50% inhibitory concentration (IC50) in test [1] was found to be 3.3 nM; in test [2], 1.6 nM.

As to `N#CN=C(NCc1ccc(S(=O)(=O)c2cccc(C#N)c2)cc1)Nc1ccncc1` [2-cyano-1-({4-[(3-cyanobenzene)sulfonyl]phenyl}methyl)-3-(pyridin-4-yl)guanidine], the figures for the 50% inhibitory concentration (IC50) in test [1] and in test [2] were 1.7 nM and 6.2 nM, respectively.

In the case of `CCOc1cccc(S(=O)(=O)c2ccc(CNC(=NC#N)Nc3ccncc3)cc2)c1` [2-cyano-1-({4-[(3-ethoxybenzene)sulfonyl]phenyl}methyl)-3-(pyridin-4-yl)guanidine], the half-maximal inhibitory concentration (IC50) in test [1] was found to be 4.3 nM; in test [2] it was 6.5 nM.

Consider `COc1ccc(S(=O)(=O)c2ccc(CNC(=NC#N)Nc3ccncc3)cc2)cc1F` [2-cyano-1-({4-[(3-fluoro-4-methoxybenzene)sulfonyl]phenyl}methyl)-3-(pyridin-4-yl)guanidine], for which the results for the IC50 in test [1] and in test [2] were 1 nM and 2 nM, respectively.

Regarding `Cc1ccc(S(=O)(=O)c2ccc(CNC(=NC#N)Nc3ccncc3)cc2)cc1F` [2-cyano-1-({4-[(3-fluoro-4-methylbenzene)sulfonyl]phenyl}methyl)-3-(pyridin-4-yl)guanidine], the concentration for half-maximal inhibition (IC50) in test [1] turned out to be 14.8 nM; in test [2] it was 6.2 nM.

`COc1cc(F)cc(S(=O)(=O)c2ccc(CNC(=NC#N)Nc3ccncc3)cc2)c1` [2-cyano-1-({4-[(3-fluoro-5-methoxybenzene)sulfonyl]phenyl}methyl)-3-(pyridin-4-yl)guanidine]: the IC50 in test [1] was found to be 2.3 nM; in test [2], 2.1 nM.

Consider `Cc1cc(F)cc(S(=O)(=O)c2ccc(CN/C(=N\C#N)Nc3ccncc3)cc2)c1` [2-cyano-1-({4-[(3-fluoro-5-methylbenzene)sulfonyl]phenyl}methyl)-3-(pyridin-4-yl)guanidine], for which the IC50 in test [1] worked out at 1.7 nM; in test [2], 3.3 nM.

Regarding `N#CN=C(NCc1ccc(S(=O)(=O)c2cccc(F)c2)cc1)Nc1ccncc1` [2-cyano-1-({4-[(3-fluorobenzene)sulfonyl]phenyl}methyl)-3-(pyridin-4-yl)guanidine], the half-maximal inhibitory concentration (IC50) in test [1] was 3.2 nM; in test [2] it was 14.5 nM.

`COc1cc(S(=O)(=O)c2ccc(CNC(=NC#N)Nc3ccncc3)cc2)ccc1C` [2-cyano-1-({4-[(3-methoxy-4-methylbenzene)sulfonyl]phenyl}methyl)-3-(pyridin-4-yl)guanidine]: the IC50 in test [1] amounted to 1.2 nM; in test [2] it was 0.8 nM.

`COc1cccc(S(=O)(=O)c2ccc(CNC(=NC#N)Nc3ccncc3)cc2)c1` [2-cyano-1-({4-[(3-methoxybenzene)sulfonyl]phenyl}methyl)-3-(pyridin-4-yl)guanidine]: the figures for the half-inhibitory concentration (IC50) in test [1] and in test [2] were 1.5 nM and 3.4 nM, respectively.

For `Cc1cccc(S(=O)(=O)c2ccc(CNC(=NC#N)Nc3ccncc3)cc2)c1` [2-cyano-1-({4-[(3-methylbenzene)sulfonyl]phenyl}methyl)-3-(pyridin-4-yl)guanidine], the IC50 in test [1] stood at 5.2 nM; in test [2], 4.6 nM.

As for `N#CN=C(NCc1ccc(S(=O)(=O)c2ccc(C#N)cc2)cc1)Nc1ccncc1` [2-cyano-1-({4-[(4-cyanobenzene)sulfonyl]phenyl}methyl)-3-(pyridin-4-yl)guanidine], the IC50 in test [1] was determined as 5.9 nM; in test [2] it was 13.7 nM.

As for `CCOc1ccc(S(=O)(=O)c2ccc(CNC(=NC#N)Nc3ccncc3)cc2)cc1F` [2-cyano-1-({4-[(4-ethoxy-3-fluorobenzene)sulfonyl]phenyl}methyl)-3-(pyridin-4-yl)guanidine], the figures for the half-maximal inhibitory concentration (IC50) in test [1] and in test [2] were 6 nM and 3.2 nM, respectively.

Take `CCOc1ccc(S(=O)(=O)c2ccc(CNC(=NC#N)Nc3ccncc3)cc2)cc1` [2-cyano-1-({4-[(4-ethoxybenzene)sulfonyl]phenyl}methyl)-3-(pyridin-4-yl)guanidine]: the IC50 in test [1] was determined as 5.6 nM; in test [2] it was 3.3 nM.

For the compound `Cc1cc(F)ccc1S(=O)(=O)c1ccc(CNC(=NC#N)Nc2ccncc2)cc1` [2-cyano-1-({4-[(4-fluoro-2-methylbenzene)sulfonyl]phenyl}methyl)-3-(pyridin-4-yl)guanidine], the IC50 in test [1] and in test [2] was 5.4 nM in each case.

Turning to `Cc1cc(S(=O)(=O)c2ccc(CNC(=NC#N)Nc3ccncc3)cc2)ccc1F` [2-cyano-1-({4-[(4-fluoro-3-methylbenzene)sulfonyl]phenyl}methyl)-3-(pyridin-4-yl)guanidine], the IC50 stood at 3.1 nM in test [1] and 3.9 nM in test [2].

`CS(=O)(=O)c1ccc(S(=O)(=O)c2ccc(CNC(=NC#N)Nc3ccncc3)cc2)cc1` [2-cyano-1-({4-[(4-methanesulfonylbenzene)sulfonyl]phenyl}methyl)-3-(pyridin-4-yl)guanidine]: the concentration for half-maximal inhibition (IC50) was 4.5 nM in test [1] and 13.1 nM in test [2].

Consider `COc1ccc(S(=O)(=O)c2ccc(CNC(=NC#N)Nc3ccncc3)cc2)cc1C` [2-cyano-1-({4-[(4-methoxy-3-methylbenzene)sulfonyl]phenyl}methyl)-3-(pyridin-4-yl)guanidine], for which the IC50 in test [1] was found to be 20.4 nM; in test [2], 15 nM.

Regarding `COc1ccc(S(=O)(=O)c2ccc(CN/C(=N\C#N)Nc3ccncc3)cc2)cc1` [2-cyano-1-({4-[(4-methoxybenzene)sulfonyl]phenyl}methyl)-3-(pyridin-4-yl)guanidine], the values for the concentration for half-maximal inhibition (IC50) in test [1] and in test [2] were 6.5 nM and 10 nM, respectively.

Source of the values: patent US9676721B2, “Compounds and compositions for the inhibition of NAMPT” (FORMA TM, LLC, priority 2010, dated 2017).
